Results as given in patent US8758816B2, “Compositions comprising azelastine and methods of use thereof” (priority 2004, dated 2014).
Where a name gives a salt, the structure may show the parent alone.

System: patients with seasonal allergic rhinitis (SAR)
Assay: MP 428 two-week randomized double-blind study: Total Nasal Symptom Score (TNSS), change from baseline
Assay type: in vivo, human
Design: key to Change from Baseline in AM TNSS, Mean / Change from Baseline in AM TNSS, LS Mean / Change from Baseline in AM TNSS, Median: TNSS sum of 4 symptoms each 0-3 (0=none, 3=severe); change from baseline
Description: A two-week, randomized, double-blind study, which evaluated the effects of the co-administration of ASTELIN® (azelastine hydrochloride (HCl)) and FLONASE® (fluticasone propionate) compared to either product alone in patients with seasonal allergic rhinitis (SAR) was conducted during the 2006 Texas mountain cedar season. After a 5-day placebo lead-in period, 151 patients with moderate-to-severe allergic rhinitis symptoms were randomized to either: (1) (49 total patients) ASTELIN® (azelastine hydrochloride (HCl)) plus placebo saline nasal spray 2 sprays per nostril, 15 minutes apart, twice daily (AM & PM); (2) (50 total patients) FLONASE® (fluticasone propionate) plus placebo saline nasal spray, 2 sprays per nostril, 15 minutes apart, once daily (AM) and two sessions of placebo saline nasal spray, 2 sprays per nostril, 15 minutes apart (PM); or (3) (52 total patients) the co-administration of ASTELIN® (azelastine hydrochloride (HCl)) 2 sprays per nostril plus FLONASE® (fluticasone propionate) 2 sprays per nostril (AM), 15 minutes apart, and ASTELIN® (azelastine hydrochloride (HCl)) 2 sprays per nostril plus placebo saline nasal spray, 15 minutes apart, (PM) for a 2-week double-blind treatment period.
The primary efficacy variable was the change from baseline in the Total Nasal Symptom Score (TNSS), which comprised sneezing, itchy nose, runny nose, and nasal congestion (individual symptoms scores were assigned a value between 0 and 3, where 0=no symptoms and 3=severe symptoms). This study was not statistically designed to assess the differences between ASTELIN® and FLONASE®.

[1] = Day 9, Intent-to-Treat Population
[2] = Day 10, Intent-to-Treat Population
[3] = Day 10, Per-Protocol Population
[4] = Day 11, Intent-to-Treat Population
[5] = Day 11, Per-Protocol Population
[6] = Day 12, Intent-to-Treat Population

CN1CCCC(n2nc(Cc3ccc(Cl)cc3)c3ccccc3c2=O)CC1 (racemic) [Azelastine, (±)-1-(2H)-phthalazinone, 4-[(4-chlorophenyl)methyl]-2-(hexahydro-1-methyl-1H-azepin-4-yl)-, mono-hydrochloride]
Change from Baseline in AM TNSS, Median [1]: −2.00
Change from Baseline in AM and PM Combined TNSS, Mean [1]: −5.38
Change from Baseline in AM and PM Combined TNSS, Median [1]: −3.83
Change from Baseline in PM TNSS, LS Mean [1]: −2.78
Change from Baseline in PM TNSS, Mean [1]: −2.86
Change from Baseline in PM TNSS, Median [1]: −2.33
Percent Change from Baseline in AM TNSS, LS Mean [1]: −26.38%
Percent Change from Baseline in AM TNSS, Mean [1]: −26.20%
Percent Change from Baseline in AM TNSS, Median [1]: −22.22%
Percent Change from Baseline in AM and PM Combined TNSS, LS Mean [1]: −27.79%
Percent Change from Baseline in AM and PM Combined TNSS, Mean [1]: −27.72%
Percent Change from Baseline in AM and PM Combined TNSS, Median [1]: −19.35%
Percent Change from Baseline in PM TNSS, LS Mean [1]: −28.94%
Percent Change from Baseline in PM TNSS, Mean [1]: −28.91%
Percent Change from Baseline in PM TNSS, Median [1]: −25.00%
Change from Baseline in AM and PM Combined TNSS, LS Mean (Day 9, Intent-to-Treat Population, ANCOVA model): −5.36
Change from Baseline in AM and PM Combined TNSS, LS Mean (Day 9, Per-Protocol Population): −5.32
Change from Baseline in AM and PM Combined TNSS, Mean (Day 9, Per-Protocol Population): −5.38
Change from Baseline in AM and PM Combined TNSS, Median (Day 9, Per-Protocol Population): −3.83
Percent Change from Baseline in AM and PM Combined TNSS, LS Mean (Day 9, Per-Protocol Population): −27.68%
Percent Change from Baseline in AM and PM Combined TNSS, Mean (Day 9, Per-Protocol Population): −27.72%
Percent Change from Baseline in AM and PM Combined TNSS, Median (Day 9, Per-Protocol Population): −19.35%
Change from Baseline in AM TNSS, LS Mean [2]: −2.29
Change from Baseline in AM TNSS, Mean [2]: −2.27
Change from Baseline in AM TNSS, Median [2]: −2.17
Change from Baseline in AM and PM Combined TNSS, Mean [2]: −5.36
Change from Baseline in AM and PM Combined TNSS, Median [2]: −5.33
Change from Baseline in PM TNSS, LS Mean [2]: −3.01
Change from Baseline in PM TNSS, Mean [2]: −3.08
Change from Baseline in PM TNSS, Median [2]: −3.00
Percent Change from Baseline in AM TNSS, LS Mean [2]: −23.62%
Percent Change from Baseline in AM TNSS, Mean [2]: −23.81%
Percent Change from Baseline in AM TNSS, Median [2]: −23.64%
Percent Change from Baseline in AM and PM Combined TNSS, LS Mean [2]: −27.60%
Percent Change from Baseline in AM and PM Combined TNSS, Mean [2]: −27.81%
Percent Change from Baseline in AM and PM Combined TNSS, Median [2]: −28.93%
Percent Change from Baseline in PM TNSS, LS Mean [2]: −31.30%
Percent Change from Baseline in PM TNSS, Mean [2]: −31.29%
Percent Change from Baseline in PM TNSS, Median [2]: −33.33%
Change from Baseline in AM and PM Combined TNSS, LS Mean (Day 10, Intent-to-Treat Population, ANCOVA model): −5.29
Change from Baseline in AM and PM Combined TNSS, LS Mean [3]: −5.25
Change from Baseline in AM and PM Combined TNSS, Mean [3]: −5.36
Change from Baseline in AM and PM Combined TNSS, Median [3]: −5.33
Percent Change from Baseline in AM and PM Combined TNSS, LS Mean [3]: −27.49%
Percent Change from Baseline in AM and PM Combined TNSS, Mean [3]: −27.81%
Percent Change from Baseline in AM and PM Combined TNSS, Median [3]: −28.93%
Change from Baseline in AM TNSS, LS Mean [4]: −2.53
Change from Baseline in AM TNSS, Mean [4]: −2.48
Change from Baseline in AM TNSS, Median [4]: −2.00
Change from Baseline in AM and PM Combined TNSS, Mean [4]: −5.77
Change from Baseline in AM and PM Combined TNSS, Median [4]: −4.70
Change from Baseline in PM TNSS, LS Mean [4]: −3.20
Change from Baseline in PM TNSS, Mean [4]: −3.29
Change from Baseline in PM TNSS, Median [4]: −3.33
Percent Change from Baseline in AM TNSS, LS Mean [4]: −25.86%
Percent Change from Baseline in AM TNSS, Mean [4]: −25.65%
Percent Change from Baseline in AM TNSS, Median [4]: −19.40%
Percent Change from Baseline in AM and PM Combined TNSS, LS Mean [4]: −29.24%
Percent Change from Baseline in AM and PM Combined TNSS, Mean [4]: −29.42%
Percent Change from Baseline in AM and PM Combined TNSS, Median [4]: −26.11%
Percent Change from Baseline in PM TNSS, LS Mean [4]: −32.80%
Percent Change from Baseline in PM TNSS, Mean [4]: −32.77%
Percent Change from Baseline in PM TNSS, Median [4]: −33.96%
Change from Baseline in AM and PM Combined TNSS, LS Mean (Day 11, Intent-to-Treat Population, ANCOVA model): −5.70
Change from Baseline in AM and PM Combined TNSS, LS Mean [5]: −5.64
Change from Baseline in AM and PM Combined TNSS, Mean [5]: −5.77
Change from Baseline in AM and PM Combined TNSS, Median [5]: −4.70
Percent Change from Baseline in AM and PM Combined TNSS, LS Mean [5]: −29.05%
Percent Change from Baseline in AM and PM Combined TNSS, Mean [5]: −29.42%
Percent Change from Baseline in AM and PM Combined TNSS, Median [5]: −26.11%
Change from Baseline in AM TNSS, LS Mean [6]: −2.60
Change from Baseline in AM TNSS, Mean [6]: −2.58
Change from Baseline in AM TNSS, Median [6]: −2.50
Change from Baseline in AM and PM Combined TNSS, Mean [6]: −5.54
Change from Baseline in AM and PM Combined TNSS, Median [6]: −5.00
Change from Baseline in PM TNSS, LS Mean [6]: −2.85
Change from Baseline in PM TNSS, Mean [6]: −2.96
Change from Baseline in PM TNSS, Median [6]: −2.40
Percent Change from Baseline in AM TNSS, LS Mean [6]: −26.61%
Percent Change from Baseline in AM TNSS, Mean [6]: −26.72%
Percent Change from Baseline in AM TNSS, Median [6]: −26.32%
Percent Change from Baseline in AM and PM Combined TNSS, LS Mean [6]: −27.99%
Percent Change from Baseline in AM and PM Combined TNSS, Mean [6]: −28.25%
Percent Change from Baseline in AM and PM Combined TNSS, Median [6]: −25.86%
Percent Change from Baseline in PM TNSS, LS Mean [6]: −29.18%
Percent Change from Baseline in PM TNSS, Mean [6]: −29.44%
